Reference: patent publication US9314025B2, “Mixtures of mesoionic pesticides” (E I DU PONT DE NEMOURS AND COMPANY, priority 2009, dated 2016)
“And” between values parts separate entries of the source, which are not always exact repeats. Identical values can stand only once.

Assays:
Assay type in all cases: in vivo
[1] = test system: diamondback moth (Plutella xylostella); test: Test A: control of diamondback moth on radish plant, foliar spray, plant feeding damage assessed visually; conditions: for Plant Protection, Observed, Cmpd A: in vivo
Source text: (§1) The presence of a synergistic effect between two active ingredients can be established with the aid of the Colby equation (see Colby, S. R., “Calculating Synergistic and Antagonistic Responses of Herbicide Combinations”, Weeds 1967, 15, 20-22):
(§2) Using the method of Colby, the presence of a synergistic interaction between two active ingredients is established by first calculating the predicted activity, p, of the mixture based on activities of the two components applied alone. In the equation above, A is the biological activity in percentage control of one component applied alone at rate x. The B term is the biological activity in percentage control of the second component applied at rate y. The equation calculates p, the predicted biological activity of the mixture of A at rate x with B at rate y if their effects are strictly additive and no interaction has occurred. If the experimentally established effect of the mixture is greater than the predicted activity, p, synergism is present. To use the Colby equation the active ingredients of the mixture are applied in a test separately as well as in combination.
For evaluating control of diamondback moth (Plutella xylostella) the test unit consisted of a small open container with a 12-14-day-old radish plant inside. This was pre-infested with ˜50 neonate larvae that were dispensed into the test unit via corn cob grits using a bazooka inoculator. The larvae moved onto the test plant after being dispensed into the test unit.
(§3) Test compounds and compositions were formulated using a solution containing 10% acetone, 90% water and 300 ppm X-77® Spreader Lo-Foam Formula non-ionic surfactant containing alkylarylpolyoxyethylene, free fatty acids, glycols and isopropanol (Loveland Industries, Inc. Greeley, Colo., USA). The formulated compounds or compositions were applied in 1 mL of liquid through a SUJ2 atomizer nozzle with 1/8 JJ custom body (Spraying Systems Co. Wheaton, Ill., USA) positioned 1.27 cm (0.5 inches) above the top of each test unit. Tests were replicated three times. After spraying of the formulated test compound or compositions, each test unit was allowed to dry for 1 h and then a black, screened cap was placed on top. The test units were held for 6 days in a growth chamber at 25° C. and 70% relative humidity. Plant feeding damage was then visually assessed based on foliage consumed.
Compound 8 was applied at a rate of 20 ppm.

[2] = test system: Western Flower Thrip (Frankliniellla occidentalis); test: Test D: control of Western Flower Thrip on Soleil bean plant through contact and/or systemic means, plant protection; conditions: for Plant Protection, Observed, Cmpd A: in vivo
Source text: as §1, §2, §3
For evaluating control of the Western Flower Thrip (Frankliniellla occidentalis) through contact and/or systemic means, the test unit consisted of a small open container with a 5-7-day-old Soleil bean plant inside.
Test compounds and compositions were formulated, sprayed, and replicated three times as described for Test A. After spraying, the test units were allowed to dry for 1 hour and then 22-27 adult thrips were added to the unit and then a black, screened cap was placed on top. The test units were held for 7 days at 25° C. and 45-55% relative humidity.
Compound 8 was applied at a rate of 250 ppm.

[3] = test system: green peach aphid (Myzus persicae); conditions: for Percent Mortality, Observed, Cmpd A: in vivo
Source text: as §1, §2, §3
For evaluating control of green peach aphid (Myzus persicae) through contact and/or systemic means, the test unit consisted of a small open container with a 12-15-day-old radish plant inside. This was pre-infested by placing on a leaf of the test plant 30-40 aphids on a piece of leaf excised from a culture plant (cut-leaf method). The aphids moved onto the test plant as the leaf piece desiccated. After pre-infestation, the soil of the test unit was covered with a layer of sand.
Test compounds and compositions were formulated and sprayed as described for Test A. The applications were replicated three times. After spraying of the formulated test compound or composition, each test unit was allowed to dry for 1 h and then a black, screened cap was placed on top. The test units were held for 6 days in a growth chamber at 19-21° C. and 50-70% relative humidity. Each test unit was then visually assessed for insect mortality.
The results calculated as mean averages of results from the three replicates are listed in Table B. Compound 123 was applied at a rate of 50 ppm. Compound 8 was applied at a rate of 250 ppm.

[4] = test system: corn planthopper (Peregrinus maidis); conditions: for Percent Mortality, Observed, Cmpd A: in vivo
Source text: as §1, §2, §3
For evaluating control of corn planthopper (Peregrinus maidis) through contact and/or systemic means, the test unit consisted of a small open container with a 3-4-day-old maize plant (spike) inside. White sand was added to the top of the soil prior to application. Test compounds and compositions were formulated, sprayed, and replicated three times as described for Test A. After spraying, the test units were allowed to dry for 1 h before they were post-infested with ˜15-20 nymphs (18 to 21 day old) by sprinkling them onto the sand with a salt shaker. A black, screened cap was placed on the top of the cylinder. The test units were held for 6 days in a growth chamber at 22-24° C. and 50-70% relative humidity. Each test unit was then visually assessed for insect mortality.
Compound 123 was applied at a rate of 2.5 ppm. Compound 8 was applied at a rate of 0.2 ppm.

| Molecule | Percent Mortality, Observed, Cmpd A [3] | Percent Mortality, Observed, Cmpd A [4] | further results |
| --- | --- | --- | --- |
| COc1ccc(C(F)(F)F)cc1-c1c([O-])[n+](Cc2ccc(F)nc2)c2ccccn2c1=O [Compound 8] |  |  | Plant Protection, Observed, Cmpd 8 ([1]; Cmpd 8 alone at 20 ppm, foliar spray, 6 days, (0 to 10 rating) × 10, mean of 3 replicates): 13 (5×) and 0 (11×) and 40 (6×) and 17 (6×); Plant Protection, Observed, Cmpd 8 ([2]; Cmpd 8 alone at 250 ppm, spray, 7 days, (0 to 10 rating) × 10, mean of 3 replicates): 53 (5×) and 37 (5×) and 50 (6×) and 10 (6×) and 30 (6×); Percent Mortality, Observed, Cmpd 8 ([3]; Cmpd 8 alone at 250 ppm, spray, 6 days, mean of 3 replicates): 25% and 13% and 10% and 15%; Percent Mortality, Observed, Cmpd 8 ([4]; Cmpd 8 alone at 0.2 ppm, spray, 6 days, mean of 3 replicates): 38% and 71% and 8% and 55% and 76% |
| spinetoram | 10% | 58% | Plant Protection, Observed, Cmpd A [1]: 40; Plant Protection, Observed, Cmpd A [2]: 27 |
| CN(C)C(CSC(N)=O)CSC(N)=O [cartap] | 15% | 40% |  |
| N#Cc1nn(-c2c(Cl)cc(C(F)(F)F)cc2Cl)c(N)c1[S+]([O-])C(F)(F)F (centres unmarked) [fipronil] | 87% | 21% |  |
| CCOC(=O)OC1=C(c2cc(C)ccc2C)C(=O)N[C@]12CC[C@@H](OC)CC2 [spirotetramat] | 8% | 65% |  |
| CC1=NNC(=O)N(/N=C/c2cccnc2)C1 [pymetrozine] | 28% | 76% |  |
| CNC(=O)ON=C(C)SC [methomyl] | 28% | 80% |  |
| COc1cccc(C(=O)NN(C(=O)c2cc(C)cc(C)c2)C(C)(C)C)c1C [methoxyfenozide] | 16% | 33% |  |
| CC(COc1ccc(Oc2ccccc2)cc1)Oc1ccccn1 (centres unmarked) [pyriproxifen] | 10% | 20% | Plant Protection, Observed, Cmpd A [1]: 0; Plant Protection, Observed, Cmpd A [2]: 7 |
| N#C/N=C1\SCCN1Cc1ccc(Cl)nc1 [thiacloprid] | 12% | 60% |  |
| O=c1c(-c2cc(OC(F)(F)F)cc(-c3ccc(F)nc3)c2)c([O-])[n+](Cc2cnc(Cl)s2)c2ccccn12 [Compound 123] |  |  | Plant Protection, Observed, Cmpd 123 ([1]; Cmpd 123 alone at 0.1 ppm, foliar spray, 6 days, (0 to 10 rating) × 10, mean of 3 replicates): 33 (5×) and 17 (11×) and 97 (6×) and 80 (6×); Plant Protection, Observed, Cmpd 123 ([2]; Cmpd 123 alone at 25 ppm, spray, 7 days, (0 to 10 rating) × 10, mean of 3 replicates): 23 (5×) and 30 (5×) and 33 (6×) and 3 (6×) and 40 (6×); Percent Mortality, Observed, Cmpd 123 ([3]; Cmpd 123 alone at 50 ppm, spray, 6 days, mean of 3 replicates): 15% and 18% and 22% and 9% and 66%; Percent Mortality, Observed, Cmpd 123 ([4]; Cmpd 123 alone at 2.5 ppm, spray, 6 days, mean of 3 replicates): 28% and 21% and 8% and 42% and 68% |
| O=C(NC(=O)c1c(F)cccc1F)Nc1ccc(OC(F)(F)C(F)OC(F)(F)F)c(Cl)c1 (centres unmarked) [novaluron] | 7% | 51% |  |
| COC(=O)N(C(=O)N1CO[C@@]2(C(=O)OC)Cc3cc(Cl)ccc3C2=N1)c1ccc(OC(F)(F)F)cc1 [indoxacarb] | 32% | 21% | Plant Protection, Observed, Cmpd A [1]: 40; Plant Protection, Observed, Cmpd A [2]: 23 |
| CNC(=O)c1cc(Cl)cc(C)c1NC(=O)c1cc(Br)nn1-c1ncccc1Cl [chlorantraniliprole] | 11% | 33% |  |
| FC(F)(F)c1ccc(OCCCOc2c(Cl)cc(OCC=C(Cl)Cl)cc2Cl)nc1 [pyridalyl] | 13% | 62% |  |
| CN1COCN(Cc2cnc(Cl)s2)/C1=N\[N+](=O)[O-] [thiamethoxam] | 40% | 29% |  |
| CC1(C)[C@H](C(=O)O[C@H](C#N)c2cccc(Oc3ccccc3)c2)[C@@H]1/C=C(\Cl)C(F)(F)F (racemic) [lambda-cyhalothrin] | 39% | 45% |  |
| CN/C(=N\[N+](=O)[O-])NCc1cnc(Cl)s1 [clothianidin] | 16% | 35% |  |
| abamectin | 91% | 90% | Plant Protection, Observed, Cmpd A [1]: 50; Plant Protection, Observed, Cmpd A [2]: 20 |
| CNC(=O)c1cc(C#N)cc(C)c1NC(=O)c1cc(Br)nn1-c1ncccc1Cl [cyantraniliprole] | 10% | 67% |  |
| CNC(=O)O/N=C(\SC)C(=O)N(C)C [oxamyl] | 23% | 32% |  |
| CCOP(=S)(OCC)Oc1nc(Cl)c(Cl)cc1Cl [chlorpyrifos] | 18% | 48% |  |
| CC(C)N1C(=O)N(c2ccccc2)CS/C1=N\C(C)(C)C [buprofezin] | 14% | 44% |  |
| CCOCn1c(-c2ccc(Cl)cc2)c(C#N)c(Br)c1C(F)(F)F [chlorfenapyr] | 54% | 81% |  |
| CN/C(=N/CC1CCOC1)N[N+](=O)[O-] (centres unmarked) [dinotefuran] | 33% | 42% |  |
| CCc1nn(C)c(C(=O)NCc2ccc(Oc3ccc(C)cc3)cc2)c1Cl [tolfenpyrad] | 77% | 98% |  |
| C/C(=N\C#N)N(C)Cc1ccc(Cl)nc1 [acetamiprid] | 9% | 32% |  |
| CS/C(C)=N\OC(=O)N(C)SN(C)C(=O)O/N=C(\C)SC [thiodicarb] | 25% | 64% |  |
| Cc1cc(C(F)(C(F)(F)F)C(F)(F)F)ccc1NC(=O)c1cccc(I)c1C(=O)NC(C)(C)CS(C)(=O)=O [flubendiamide] | 5% | 42% |  |
| N#CCNC(=O)c1cnccc1C(F)(F)F [flonicamid] | 14% | 70% | Plant Protection, Observed, Cmpd A [1]: 10; Plant Protection, Observed, Cmpd A [2]: 60 |
